Measurements reported in patent publication US20070128217A1 (priority 2003, published 2007).

Legend:
[1] = tested on: antibodies in sera from SARS patients (sera 1a, 1b, 2, 6, 37, 62, London, SARS-yellow, SARS-green); format: binding, human; parameters: Binding of serum 6 to linear peptides of protein X1 of SARS-CoV Urbani / Binding of serum 37 to linear peptides of protein X1 of SARS-CoV Urbani / Binding of serum 6 to looped/cyclic peptide (PEPSCAN-ELISA) / Binding of serum 37 to looped/cyclic peptide (PEPSCAN-ELISA) / Binding of serum 37 to looped/cyclic peptides of protein X1 of SARS-CoV Urbani / Binding of serum 6 to linear peptides of protein X2 / Binding of serum 37 to linear peptides of protein X2 / Binding of serum 37 to looped/cyclic peptides of protein X2 of SARS-CoV Urbani / Binding of serum 6 to linear peptides of protein M of SARS-CoV Urbani / Binding of serum 37 to linear peptides of protein M of SARS-CoV Urbani / Binding of serum 6 to looped/cyclic peptides of protein M of SARS-CoV Urbani / Binding of serum 37 to looped/cyclic peptides of protein M of SARS-CoV Urbani / Binding of serum 6 to linear peptides of protein X3 of SARS-CoV Urbani / Binding of serum 37 to linear peptides of protein X3 of SARS-CoV Urbani / Binding of serum 37 to looped/cyclic peptides of protein X3 of SARS-CoV Urbani / Binding of serum 6 to linear peptides of protein X4 of SARS-CoV Urbani / Binding of serum 37 to linear peptides of protein X4 of SARS-CoV Urbani / Binding of serum 37 to looped/cyclic peptides of protein X4 of SARS-CoV Urbani / Binding of serum 6 to linear peptides of protein X5 of SARS-CoV Urbani / Binding of serum 37 to linear peptides of protein X5 of SARS-CoV Urbani / Binding of serum 37 to looped/cyclic peptides of protein X5 of SARS-CoV Urbani / Binding of serum 6 to linear peptides of protein N of SARS-CoV Urbani / Binding of serum 37 to linear peptides of protein N of SARS-CoV Urbani / Binding of serum 6 to linear peptide (PEPSCAN-ELISA) / Binding of serum 1a to looped/cyclic peptides of protein N of SARS-CoV Urbani / Binding of serum 1b to looped/cyclic peptides of protein N of SARS-CoV Urbani / Binding of serum 2 to looped/cyclic peptides of protein N of SARS-CoV Urbani / Binding of serum 6 to looped/cyclic peptides of protein N of SARS-CoV Urbani / Binding of serum 37 to looped/cyclic peptides of protein N of SARS-CoV Urbani / Binding of serum 62 to looped/cyclic peptides of protein N of SARS-CoV Urbani / Binding of serum London to looped/cyclic peptides of protein N of SARS-CoV Urbani / Binding of serum SARS-green to looped/cyclic peptides of protein N of SARS-CoV Urbani: unit not given here
[2] = tested on: control sera (pooled serum of ten healthy LUMC hospital workers; commercial negative donor pooled serum from the Dutch bloodbank); format: binding, human; parameters: Binding of Control serum LUMC to linear peptides / Binding of Control serum Blood-bank to linear peptides / Binding of Control serum LUMC to looped peptides / Binding of Control Serum Blood-Bank to Looped peptides / Binding of Control serum LUMC to linear peptides of the protein M of SARS-CoV Urbani / Binding of Control serum Blood-bank to linear peptides of the protein M of SARS-CoV Urbani / Binding of Control serum LUMC to looped peptides of the protein M of SARS-CoV Urbani / Binding of Control Serum Blood-Bank to Looped peptides of the protein M of SARS-CoV Urbani: unit not given here
[3] = tested on: rabbit serum obtained by immunizing a rabbit with the SARS-CoV strain Frankfurt 1; format: binding; parameters: Binding of a rabbit serum to linear peptides / Binding of a rabbit serum to looped peptides / Rabbit serum linear peptides / Rabbit serum looped peptides / Binding of a rabbit serum to linear peptides of protein N of SARS-CoV Urbani (Rabbit serum linear peptides) / Binding of a rabbit serum to looped/cyclic peptides of protein N of SARS-CoV Urbani (Rabbit serum looped peptides): unit not given here

| Sequence | Binding of Control Serum Blood-Bank to Looped peptides [2] | Binding of Control serum Blood-bank to linear peptides [2] | Binding of Control serum LUMC to linear peptides [2] | Binding of Control serum LUMC to looped peptides [2] | Binding of serum 1a to linear peptides of protein X1 of SARS-CoV Urbani [1] | Binding of serum 1a to looped/cyclic peptides of protein X1 of SARS-CoV Urbani [1] | Binding of serum 1b to linear peptides of protein X1 of SARS-CoV Urbani [1] | Binding of serum 1b to looped/cyclic peptides of protein X1 of SARS-CoV Urbani [1] | Binding of serum 2 to linear peptides of protein X1 of SARS-CoV Urbani [1] | Binding of serum 2 to looped/cyclic peptides of protein X1 of SARS-CoV Urbani [1] | Binding of serum 6 to linear peptides of protein X1 of SARS-CoV Urbani [1] | Binding of serum 6 to looped/cyclic peptides of protein X1 of SARS-CoV Urbani [1] | Binding of serum 37 to linear peptides of protein X1 of SARS-CoV Urbani [1] | Binding of serum 37 to looped/cyclic peptides of protein X1 of SARS-CoV Urbani [1] | Binding of serum 62 to linear peptides of protein X1 of SARS-CoV Urbani [1] | Binding of serum London to linear peptides of protein X1 of SARS-CoV Urbani [1] | Binding of serum SARS-green to linear peptides of protein X1 of SARS-CoV Urbani [1] | Binding of serum SARS-yellow to linear peptides of protein X1 of SARS-CoV Urbani [1] | Binding of a rabbit serum to linear peptides [3] | Binding of a rabbit serum to looped peptides [3] | further results |
| --- | --- | --- | --- | --- | --- | --- | --- | --- | --- | --- | --- | --- | --- | --- | --- | --- | --- | --- | --- | --- | --- |
| QLRARSVSPKLFIRQ | 0.9 | 0.7 | 0.6 | 0.8 | – | – | – | – | – | – | – | – | – | – | – | – | – | – | – | – | Binding of serum 1a to linear peptides of protein X4 of SARS-CoV Urbani [1]: 0.7; Binding of serum 1a to looped/cyclic peptides of protein X4 of SARS-CoV Urbani [1]: 0.7; Binding of serum 1b to linear peptides of protein X4 of SARS-CoV Urbani [1]: 0.6; Binding of serum 1b to looped/cyclic peptides of protein X4 of SARS-CoV Urbani [1]: 0.6; Binding of serum 2 to linear peptides of protein X4 of SARS-CoV Urbani [1]: 0.6; Binding of serum 2 to looped/cyclic peptides of protein X4 of SARS-CoV Urbani [1]: 0.8; Binding of serum 6 to linear peptides of protein X4 of SARS-CoV Urbani [1]: 0.9; Binding of serum 6 to looped/cyclic peptides of protein X4 of SARS-CoV Urbani [1]: 0.9; Binding of serum 37 to linear peptides of protein X4 of SARS-CoV Urbani [1]: 0.7; Binding of serum 37 to looped/cyclic peptides of protein X4 of SARS-CoV Urbani [1]: 0.6; Binding of serum 62 to linear peptides of protein X4 of SARS-CoV Urbani [1]: 0.7; Binding of serum 62 to looped/cyclic peptides of protein X4 of SARS-CoV Urbani [1]: 0.6; Binding of serum London to linear peptides of protein X4 of SARS-CoV Urbani [1]: 0.8; Binding of serum London to looped/cyclic peptides of protein X4 of SARS-CoV Urbani [1]: 0.4; Binding of serum SARS-green to linear peptides of protein X4 of SARS-CoV Urbani [1]: 0.6; Binding of serum SARS-green to looped/cyclic peptides of protein X4 of SARS-CoV Urbani [1]: 0.4; Binding of serum SARS-yellow to linear peptides of protein X4 of SARS-CoV Urbani [1]: 0.3; Binding of serum SARS-yellow to looped/cyclic peptides of protein X4 of SARS-CoV Urbani [1]: 0.8; Recognition of the peptide by the rabbit serum [3]: recognized |
| EGDGISTPKLKEDYQ | 0.4 | 0.2 | 0.3 | 0.4 | 0.6 | 0.4 | 0.3 | 0.3 | 0.6 | 0.2 | 0.3 | 0.2 | 0.5 | 0.3 | 0.4 | 0.3 | 0.2 | 0.2 | 0.1 | 0.4 | Binding of serum 62 to looped/cyclic peptides of protein X1 of SARS-CoV Urbani [1]: 0.3; Binding of serum London to looped/cyclic peptides of protein X1 of SARS-CoV Urbani [1]: 0.2; Binding of serum SARS-green to looped/cyclic peptides of protein X1 of SARS-CoV Urbani [1]: 0.2; Binding of serum SARS-yellow to looped/cyclic peptides of protein X1 of SARS-CoV Urbani [1]: 0.1 |
| ENATFFIFNKLVKDP | 0.7 | 0.5 | 0.4 | 0.4 | 0.6 | 0.4 | 0.4 | 0.3 | 0.5 | 0.5 | 0.4 | 0.4 | 0.5 | 0.4 | 0.4 | 0.2 | 0.0 | 0.2 | 0.1 | 0.5 | Binding of serum 62 to looped/cyclic peptides of protein X1 of SARS-CoV Urbani [1]: 0.5; Binding of serum London to looped/cyclic peptides of protein X1 of SARS-CoV Urbani [1]: 0.2; Binding of serum SARS-green to looped/cyclic peptides of protein X1 of SARS-CoV Urbani [1]: 0.2; Binding of serum SARS-yellow to looped/cyclic peptides of protein X1 of SARS-CoV Urbani [1]: 0.2 |
| YNSVTDTIVVTEGDG | 0.3 | 0.4 | 0.4 | 0.4 | 0.6 | 0.4 | 0.5 | 0.3 | 0.4 | 0.2 | 0.4 | 0.2 | 0.5 | 0.4 | 0.5 | 0.2 | 0.3 | 0.4 | 0.1 | 0.5 | Binding of serum 62 to looped/cyclic peptides of protein X1 of SARS-CoV Urbani [1]: 0.3; Binding of serum London to looped/cyclic peptides of protein X1 of SARS-CoV Urbani [1]: 0.2; Binding of serum SARS-green to looped/cyclic peptides of protein X1 of SARS-CoV Urbani [1]: 0.3; Binding of serum SARS-yellow to looped/cyclic peptides of protein X1 of SARS-CoV Urbani [1]: 0.3 |
| QFICNLLLLFVTIYS | 0.5 | 0.6 | 0.6 | 0.5 | 0.6 | – | 0.5 | – | 0.6 | – | 0.4 | – | 0.5 | – | 0.6 | 0.2 | 0.0 | 0.4 | 0.3 | 0.5 | Binding of serum 1a to looped/cyclic peptide (PEPSCAN-ELISA) [1]: 0.5; Binding of serum 1b to looped/cyclic peptide (PEPSCAN-ELISA) [1]: 0.4; Binding of serum 2 to looped/cyclic peptide (PEPSCAN-ELISA) [1]: 0.6; Binding of serum 6 to looped/cyclic peptide (PEPSCAN-ELISA) [1]: 0.3; Binding of serum 37 to looped/cyclic peptide (PEPSCAN-ELISA) [1]: 0.5; Binding of serum 62 to looped/cyclic peptide (PEPSCAN-ELISA) [1]: 0.5; Binding of serum London to looped/cyclic peptide (PEPSCAN-ELISA) [1]: 0.2; Binding of serum SARS-green to looped/cyclic peptide (PEPSCAN-ELISA) [1]: 0.2; Binding of serum SARS-yellow to looped/cyclic peptide (PEPSCAN-ELISA) [1]: 0.5 |
